Like-named read-outs stand apart in the source and are kept apart here.

Results on 39 compounds are retold here after patent US20090118135A1, “METHODS AND COMPOUNDS FOR REGULATING APOPTOSIS” (The Burnham Institute, priority 2007, published 2009).

In the test the target is T1, GST-Bcl-B (Homo sapiens, UniProt Q9HD36).
T1 sequence (Q9HD36 1-182 limits assumed): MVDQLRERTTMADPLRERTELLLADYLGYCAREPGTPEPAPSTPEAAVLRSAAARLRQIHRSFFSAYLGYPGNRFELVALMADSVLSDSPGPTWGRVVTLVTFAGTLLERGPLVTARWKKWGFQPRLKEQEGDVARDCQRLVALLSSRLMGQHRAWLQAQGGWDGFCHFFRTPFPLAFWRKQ
Put plainly: Bcl-B/FITC-TR3-r8 fluorescence polarization competition (displacement) assay, HTS and dose-response. In general terms: In fluorescence polarisation assays a small probe gives low polarisation when free and higher when bound to something large.

Where [1] appears, read: Table 8, NCI Structural library, Binding Assay, FP, Concentration 0.02 uM.
Setting [2] is: read-out: Result Value (Result Type % Inhibition), BCL-b/TR3.
[3] abbreviates: Table 7, NCI Mechanistic library, Binding Assay, FP, Concentration 0.02 uM.
The mark [4] stands for this setting: read-out: Result Value (Result Type % Inhibition), BCL-b/TR3, Table 8, NCI Structural library, Binding Assay, FP, Concentration 0.02 uM.
The mark [5] stands for this setting: read-out: Result Value (Result Type % Inhibition), BCL-b/TR3, Table 7, NCI Mechanistic library, Binding Assay, FP, Concentration 0.02 uM.

Take `O=C(O)C1=CC(=C(c2ccc(O)c(C(=O)O)c2)c2ccc(O)c(C(=O)O)c2)C=CC1=O` [A 1895]: for the setting “LOPAC1280 library primary screen”, the “Is Hit” value was “Yes”. Besides, the “F Ratio” value (LOPAC1280 library, fluorescence intensity normalized to plate negative controls) worked out at 0.07629. Moreover, the inhibition at 0.02 µM (read-out: Result Value (% Inhibition)) was 107%.

On to `O=[N+]([O-])c1ccc2c(/N=N/c3ccc4ccccc4c3O)c(O)cc(S(=O)(=O)O)c2c1` [Compound 7223], for which, under setting [1], the “F Ratio” value came out at 0.05712 and the “Is Hit” value was “Yes”. Besides, the inhibition at 0.02 µM under setting [2] was found to be 139%.

For `Cc1ccc(/N=N/c2c(O)ccc3cc(S(=O)(=O)O)ccc23)cc1` [Compound 7814], under setting [1], the “F Ratio” value is on record as 0.28 and the “Is Hit” value is recorded as “Yes”. Moreover, the inhibition at 0.02 µM under setting [2] is 54.3%.

On to `O=S(=O)(O)c1ccc(NN(c2c(O)ccc3ccccc23)S(=O)(=O)O)cc1` [Compound 9600], for which, under setting [1], the “F Ratio” value is listed as 0.4361 and the “Is Hit” value is “Yes”. For the same compound, under setting [2], the inhibition at 0.02 µM was 50.7%.

In the case of `O=C1c2ccccc2C(=O)c2c(O)c(O)cc(O)c21` [Compound 10447], under setting [3], the “F Ratio” value came to 0.5532 and the “Is Hit” value was “Yes”. Also, the inhibition at 0.02 µM under setting [2] was found to be 146%.

In the case of `Cc1ccc(/N=N/c2c(O)c(S(=O)(=O)O)cc3cc(S(=O)(=O)O)ccc23)c(C)c1` [Compound 10455], the “F Ratio” value was found to be 0.4406 and the “Is Hit” value was “Yes”. Moreover, the inhibition at 0.02 µM under setting [2] is 50.7%.

Take `N=C1C=CC(=C(c2ccc(N)cc2)c2ccc(N)cc2)C=C1` [Compound 10460]: under setting [1], the “F Ratio” value is listed as 0.1378 and the “Is Hit” value was “Yes”. For the same compound, the inhibition at 0.02 µM under setting [2] came to 81.7%.

For `Oc1c(C(O)(c2ccccc2)c2ccc3ccccc3c2O)ccc2ccccc12` [Compound 13984], under setting [1], the “F Ratio” value stood at 0.7704 and the “Is Hit” value is recorded as “Yes”. The inhibition at 0.02 µM under setting [2] is 87%.

Regarding `CN(C)CS/C(N)=N\C(O)C(Cl)(Cl)Cl` (stereo not shown) [Compound 14555], under setting [1], the “F Ratio” value is listed as 0.6767 and the “Is Hit” value is on record as “Yes”. For the same compound, under setting [4], the inhibition at 0.02 µM amounted to 59.9%.

Consider `CCN(CCO)CCNc1ccc(C)c2sc3ccccc3c(=O)c12` [Compound 20534], for which, under setting [3], the “F Ratio” value is given as 0.6411 and the “Is Hit” value is “Yes”. The inhibition at 0.02 µM under setting [2] was 74.4%.

Consider `CCN1C=C/C(=C\C=C\c2cc[n+](CC)c3ccccc23)C2C=CC=CC21` (stereo not shown) [Compound 34391], for which, under setting [3], the “F Ratio” value is on record as 0.2486 and the “Is Hit” value is given as “Yes”. Under setting [2], the inhibition at 0.02 µM was determined as 104%.

Regarding `O=S(=O)(O)c1cc(/N=N/c2cc(S(=O)(=O)O)c3ccccc3c2O)ccc1/C=C/c1ccc(/N=N/c2cc(S(=O)(=O)O)c3ccccc3c2O)cc1S(=O)(=O)O` [Compound 34931], under setting [3], the “F Ratio” value amounted to 0.0509 and the “Is Hit” value was “Yes”. Moreover, under setting [2], the inhibition at 0.02 µM stood at 80.3%.

As for `O=S(=O)(O)c1cc(/N=[N+](\[O-])c2cc(S(=O)(=O)O)c3ccccc3c2)cc2ccccc12` [Compound 37031], under setting [1], the “F Ratio” value came out at 0.4022 and the “Is Hit” value is listed as “Yes”. In addition, the inhibition at 0.02 µM under setting [2] was determined as 84.6%.

As for `O=S(=O)(O)c1cc(O)c2c(O)c(/N=N/c3cccc4ccccc34)c(S(=O)(=O)O)cc2c1` [Compound 45208], under setting [1], the “F Ratio” value was 0.1219 and the “Is Hit” value is on record as “Yes”. The inhibition at 0.02 µM under setting [2] was determined as 66.1%.

`O=S(=O)(O)c1ccc2c(/N=N/c3c(O)ccc4ccccc34)cccc2c1` [Compound 45576]: under setting [1], the “F Ratio” value is on record as 0.05945 and the “Is Hit” value is given as “Yes”. Besides, the inhibition at 0.02 µM under setting [2] worked out at 119%.

For the compound `O=S(=O)(O)c1ccc2c(/N=N/c3cccc4ccccc34)c(O)c(S(=O)(=O)O)cc2c1` [Compound 45583], under setting [1], the “F Ratio” value is given as 0.1069 and the “Is Hit” value is “Yes”. In addition, under setting [2], the inhibition at 0.02 µM was 84.6%.

For the compound `CN(C)C1C(O)=C(C(=O)NCN2CCCC2)C(=O)C2(O)C(O)=C3C(=O)c4c(O)cccc4C(C)(O)C3CC12` (stereo not shown) [Compound 50352], under setting [1], the “F Ratio” value came to 0.2153 and the “Is Hit” value is “Yes”. Further, under setting [4], the inhibition at 0.02 µM was 122%.

On to `O=C1c2cc([N+](=O)[O-])ccc2-c2ccc3c4ccc5c6c(ccc(c7ccc1c2c73)c64)C(=O)c1cc([N+](=O)[O-])ccc1-5` [Compound 51535], for which, under setting [1], the “F Ratio” value stood at 0.4823 and the “Is Hit” value is reported as “Yes”. Moreover, the inhibition at 0.02 µM under setting [2] was 146%.

For `Cc1cc2c(C(C)C)c(O)c(O)c(C=O)c2c(O)c1-c1c(C)cc2c(C(C)C)c(O)c(O)c(C=O)c2c1O` [Compound 56817], under setting [3], the “F Ratio” value turned out to be 0.1472 and the “Is Hit” value is given as “Yes”. Further, the inhibition at 0.02 µM under setting [5] was 57.3%.

On to `[O-][n+]1c2c([n+]([O-])c3ccccc31)-c1cccc3cccc-2c13` [Compound 60309], for which, under setting [3], the “F Ratio” value worked out at 1.4371 and the “Is Hit” value was “Yes”. Moreover, under setting [2], the inhibition at 0.02 µM was determined as 72.3%.

As to `Nc1ccc(/N=N/c2ccc(-c3ccc(O)cc3)cc2)c2ccc(S(=O)(=O)O)cc12` [Compound 65528], under setting [1], the “F Ratio” value was 0.1609 and the “Is Hit” value is recorded as “Yes”. Moreover, under setting [2], the inhibition at 0.02 µM was found to be 71.6%.

`CN(C)C1C(O)=C(C(N)=O)C(=O)C2(O)C(O)=C3C(=O)c4c(O)cccc4C(C)(O)C3CC12.CS(=O)(=O)O` (stereo not shown) [Compound 69343]: under setting [1], the “F Ratio” value is reported as 0.3746 and the “Is Hit” value was “Yes”. Also, the inhibition at 0.02 µM under setting [2] was 93.4%.

Consider `Cc1cc2c(c3oc(C4OC4C4OC4C)cc(=O)c13)C(=O)c1c(O)c(C3CC(C)(N(C)C)C(O)C(C)O3)cc(C3CC(N(C)C)C(O)C(C)O3)c1C2=O` (stereo not shown) [Compound 70929], for which, under setting [3], the “F Ratio” value stood at 0.1099 and the “Is Hit” value was “Yes”. Moreover, the inhibition at 0.02 µM under setting [5] is 105%.

On to `O=[N+]([O-])c1ccc2c(/N=N/c3c(O)ccc4ccccc34)c(O)cc(S(=O)(=O)O)c2c1` [Compound 73413], for which, under setting [3], the “F Ratio” value worked out at 0.05947 and the “Is Hit” value is “Yes”. For the same compound, the inhibition at 0.02 µM under setting [2] was 125%.

As to `O=[N+]([O-])c1cccc2c(/N=N/c3ccc4ccccc4c3O)c(O)cc(S(=O)(=O)O)c12` [Compound 85561], under setting [3], the “F Ratio” value was 0.06489 and the “Is Hit” value is listed as “Yes”. Further, under setting [2], the inhibition at 0.02 µM came to 141%.

Take `C[n+]1c(/C=C/c2ccc(O)c3ncccc23)[se]c2ccccc21` [Compound 86374]: under setting [1], the “F Ratio” value was found to be 0.09444 and the “Is Hit” value is recorded as “Yes”. For the same compound, the inhibition at 0.02 µM under setting [4] turned out to be 61.4%.

In the case of `O=S(=O)(O)c1ccc2cc(/N=N/c3cc(S(=O)(=O)O)c4cccnc4c3O)ccc2c1` [Compound 87677], under setting [1], the “F Ratio” value is given as 0.3822 and the “Is Hit” value is recorded as “Yes”. The inhibition at 0.02 µM under setting [2] was determined as 66.1%.

In the case of `C[C@]12CC[C@H]3[C@@H](CCC4=CC(=O)CC[C@@]43C)[C@@H]1CC[C@@H]2C(=O)COS(=O)(=O)c1ccc(Br)cc1` [Compound 88915], under setting [1], the “F Ratio” value is recorded as 0.2647 and the “Is Hit” value is “Yes”. Moreover, the inhibition at 0.02 µM under setting [2] worked out at 61.4%.

As for `Cc1cc(C(=C2C=CC(=N)C=C2)c2ccc(N)cc2)ccc1N` [Compound 93739], the inhibition at 0.02 µM under setting [2] came out at 78.6%.

For `Oc1ccc(Cc2nccc3cc(O)c(O)cc23)cc1O` [Compound 99799], under setting [1], the “F Ratio” value was found to be 0.09369 and the “Is Hit” value was “Yes”. For the same compound, the inhibition at 0.02 µM under setting [2] was 77.4%.

`O=C1OC(c2ccccc2)=N/C1=C\c1ccc(N(CCCl)CCCl)cc1` [Compound 104117]: under setting [3], the “F Ratio” value was determined as 1.2733 and the “Is Hit” value is recorded as “Yes”. Further, under setting [2], the inhibition at 0.02 µM is 62.8%.

As to `COC(=O)c1ccc(O)c2nc3c(C=O)c(O)cc(O)c3nc12` [Compound 106995], under setting [3], the “F Ratio” value is recorded as 0.08027 and the “Is Hit” value is “Yes”. Further, the inhibition at 0.02 µM under setting [2] turned out to be 98.9%.

For `COc1cc(-c2[o+]c3cc(O)cc(O)c3cc2O)cc(O)c1O.O=C(O)c1ccccc1` [Compound 114885], under setting [1], the “F Ratio” value turned out to be 0.08249 and the “Is Hit” value is listed as “Yes”. Also, the inhibition at 0.02 µM under setting [4] came to 108%.

For `Nc1c(S(=O)(=O)O)cc(Nc2cccc(S(N)(=O)=O)c2)c2c1C(=O)c1ccccc1C2=O` [Compound 117079], under setting [1], the “F Ratio” value amounted to 0.4053 and the “Is Hit” value is recorded as “Yes”. Further, the inhibition at 0.02 µM under setting [2] is 163%.

Regarding `Nc1nc(N)c(/N=N/c2ccc(C(=O)O)c(O)c2)c(N)n1` [Compound 117285], under setting [1], the “F Ratio” value stood at 0.2954 and the “Is Hit” value was “Yes”. Besides, the inhibition at 0.02 µM under setting [2] amounted to 59.9%.

As for `CN(C)S(=O)(=O)c1ccc(Nc2ccc(O)c3c2C(=O)c2c([N+](=O)[O-])ccc(O)c2C3=O)cc1` [Compound 117949], under setting [1], the “F Ratio” value was determined as 0.9351 and the “Is Hit” value is on record as “Yes”. Under setting [2], the inhibition at 0.02 µM is 50.3%.

Take `N=C1C(O)C2(I)c3ccccc3N3C(=N)C(O)C4c5ccccc5N1C4C32` (stereo not shown) [Compound 118176]: under setting [1], the “F Ratio” value was found to be 0.5128 and the “Is Hit” value was “Yes”. For the same compound, the inhibition at 0.02 µM under setting [2] was 62.3%.

Regarding `O=C(O)C1CCCCC1c1c2ccc(=O)c(O)c-2oc2c(O)c(O)ccc12` (stereo not shown) [Compound 119910], under setting [1], the “F Ratio” value is listed as 0.1582 and the “Is Hit” value is on record as “Yes”. Moreover, the inhibition at 0.02 µM under setting [2] is 119%.

Take `O=C(O)/C=C/c1c2ccc(=O)c(O)c-2oc2c(O)c(O)ccc12` [Compound 119911]: under setting [1], the “F Ratio” value is recorded as 0.07992 and the “Is Hit” value is reported as “Yes”. Also, the inhibition at 0.02 µM under setting [2] stood at 123%.
